Experimental data: patent publication US20140057865A1, “ANALYSIS OF NODES IN CELLULAR PATHWAYS” (Nodality, Inc., priority 2009, published 2014)
“Also recorded” adds a separate entry of the source.

Legend:
[1] = test system: U937 cells; test: Cell cycle progression and cell death by DAPI staining and scatter; type: cell-based, human; conditions: Vidaza 2.5 μM, Dacogen 0.625 μM, 20 hours
Method: (§1) FIGS. 9 and 10 show an embodiment of the invention used to analyze the effects of the DNA methyltransferase inhibitor drugs Vidaza® cytidine analog and Dacogen® cytidine analog on cultured U937 cells. See Example 1 in U.S. Ser. No. 61/120,320 for detailed cell culture, staining, and flow cytometry protocols similar to those used in this example. Here, to analyze the effects of Vidaza® cytidine analog and Dacogen® cytidine analog on cell cycle progression and cell death, U937 cells were treated with Vidaza® cytidine analog (5-Azacytidine) at a concentration of 2.5 μM, or Dacogen® cytidine analog (5-Aza-2′-deoxycytidine) at a concentration of 0.625 μM. The cells were continuously incubated with the drugs for 20 hours in 10% FBS RPMI, fixed, permeabilized, and then stained with DAPI, or stained with DAPI and immunolabeled with antibodies against DMNT 1.
(§2) (See Alberts et al., Molecular Biology of the Cell, 4th Ed., Chapter 17 for an overview of the cell cycle). […] Additionally, the experimental results in this example may be used to identify therapeutic agents that can be used in combination with either Vidaza® cytidine analog or Dacogen® cytidine analog. […]

[2] = test system: healthy bone marrow mononuclear cells; test: Viability of healthy BMMCs, ON01910.Na titration; type: cell-based
Method: (§3) In the example, erythroblast (TF-1) and U937 cell lines, as well as healthy bone marrow mononuclear cells, were treated with a test modulator (ON01910.Na) over several dilutions for 24 hours. Flow cytometry was used to obtain multiple intracellular readouts or nodes, including levels of protein phosphorylation, levels of protein expression, cell size and shape, and DNA content.
(§4) The findings shown in FIGS. 4 through 7 were tested in other cell types.

[3] = test system: erythroblast (TF-1) cell line; test: Cell death by forward and side scatter of light; type: cell-based, human; conditions: TF-1 erythroblasts, 24 and 48-hour continuous treatment
Excerpt: In some embodiments of the invention, the activatible elements may function in cell death, including apoptosis or necrosis. A person of ordinary skill in the art may analyze cell death using stains, biomarkers, assays, or kits to identify node states associated with cell cycle progression and cell death without departing from the scope of the invention. By way of example, stains used to identify cell death include, but are not limited to amine aqua, propidium iodide, 4′,6-diamidino-2-phenylindole (DAPI), bromodeoxyuridine (BrdU), acridine orange, SYTOX, and TUNEL. A person of ordinary skill in the art will appreciate that several of the aforementioned stains, such as DAPI, may also be used to determine the cell cycle of a single cell or population of cells. Cell death may also be identified using the forward versus side scatter dot plots obtained during flow cytometry.
as §3

[4] = test system: U937 cells; test: Cell cycle nodes by flow cytometry, ON01910.Na titration; type: cell-based, human
Method: as §3, §4

[5] = test system: healthy bone marrow mononuclear cells; test: as above; type: cell-based
Method: as §3, §4

[6] = test system: TF-1 cells; test: Cell cycle nodes (p-Cdk1 Y15, p-Histone H3 S28, Cyclin B1) by flow cytometry; type: cell-based, human
Method: as §3
FIGS. 4-6 show the effects of two concentrations of ON01910.Na on different markers or nodes whose activation status correlates with cell cycle progression. […] Cdk1 activation normally occurs at the end of G2, so increased Cdk1 levels […] at tyrosine 15 are consistent with cell cycle arrest in G2 or early M phases (See Alberts et al, Molecular Biology of the Cell, 4th Ed., Chapter 17 for a detailed discussion of the cell cycle).
Phosphorylation of histone H3 is a marker of chromatin condensation and entry into M phase (See Alberts et al, Molecular Biology of the Cell, 4th Ed., FIG. 4-35 for discussion of histone modifications). Continuous treatment with ON01910.Na for 24-hours enhances H3 (Ser28) phosphorylation. The effects of these two doses on the node state (serine 28 phosphorylation of H3) are detectable using flow cytometry. […] FIG. 7 presents a summary of the effects of ON01910.Na treatment on the Cyclin B1, p-Cdk1 Y15, and pH3 S28 cell cycle nodes.

[7] = test system: erythroblast (TF-1) cell line; test: DNA content by DAPI staining, flow cytometry; type: cell-based, human; conditions: for cell cycle arrest and cell death by DNA content (sub-2n through 4n, DAPI staining): TF-1 erythroblasts, several dilutions, 24 hours
Excerpt: DNA content can be directly monitored using fluorescent dyes that bind DNA in the major or minor groove. This labeled DNA can be detected and cellular DNA content can be determined using flow cytometry or other methods as described below. DNA content can be used to indicate the status of a cell or population of cells. The effect of a compound on both the cell cycle and cell death pathways can be determined by monitoring changes in DNA content within a single cell or a population of cells. For example, cell cycle arrest in G1 or G2/M phases of the cell cycle may appear as an increase in 2n or 4n DNA content respectively while an increase in cell death may appear as an increase in sub-2n DNA content.
as §3

[8] = test system: DNMT1; test: DNMT1 expression by immunolabeling, flow cytometry; type: cell-based, human; conditions: U937 cells, Vidaza 2.5 μM, 20 hours
Method: as §1, §2

[9] = TF-1 erythroblasts, two concentrations, 24 hours continuous

Nc1ncn([C@H]2C[C@H](O)[C@@H](CO)O2)c(=O)n1 [Dacogen, 5-Aza-2′-deoxycytidine]
effect on cell cycle progression and cell death (DAPI frequency plots, scatter) [1]: S phase cell cycle arrest; also recorded: inducing arrest at S phase

COc1cc(OC)c(/C=C/S(=O)(=O)Cc2ccc(OC)c(NCC(=O)[O-])c2)c(OC)c1.[Na+] [ON01910.Na]
viability of healthy bone marrow mononuclear cells [2]: does not significantly alter viability | cell death by scatter properties [3]: induce cell death, with a greater magnitude of cell death observed following longer treatment and higher dose; also recorded: induces cell death in erythroblasts | cell death by scatter properties ([3]; listed as ON-01910.Na): induces cell death | changes in cell cycle signaling molecules [4]: simultaneous changes in cell cycle signaling molecules at the same drug concentration | expression of Cyclin B1 ([4]; 24 hours): increased | phosphorylation of Cdk1 ([4]; 24 hours): decreased phosphorylation of Cdk1 | phosphorylation of H3 ([4]; 24 hours): increased phosphorylation of H3 | cycling bone marrow mononuclear cells as measured by p-Cdk1 Y15 ([5]; BMMCs): dose dependent decrease of cycling bone marrow mononuclear cells | Cyclin B1 expression levels ([5]; healthy BMMCs): Cyclin B1 expression levels increase | cell cycle arrest indicated by Cyclin B1, p-Cdk1 Y15 and pH3 S28 nodes ([6]; TF-1 cells, various concentrations, 24 hours): arrest in the G2 or M phases of the cell cycle in a dose dependent manner | Cyclin B1 expression ([6]; TF-1 erythroblasts, increased concentration): more cells express Cyclin B1; also recorded: mediates an increase in cyclin B1 | p-Cdk1 Y15 phosphorylation [6, 9]: increases dephosphorylation of p-Cdk1 at tyrosine 15; also recorded: mediates dephosphorylation of p-Cdk1^Y15 | p-Histone H3 S28 phosphorylation [6, 9]: histone 3 serine 28 phosphorylation increases; also recorded: mediates an increase in p-HistoneH3^S28 | 4n DNA content peak ([7]; TF-1 cells, 0.12 μM and 0.37 μM): increases in a dose-dependent manner | cell cycle arrest and cell death by DNA content (sub-2n through 4n, DAPI staining) [7]: induces arrest in G2/M and cell death in a dose-dependent manner | cell cycle arrest and cell death by DNA content (sub-2n through 4n, DAPI staining) ([7]; listed as ON-01910.Na): induces arrest in G2/M and cell death

Nc1ncn([C@@H]2O[C@H](CO)[C@@H](O)[C@H]2O)c(=O)n1 [Vidaza, 5-Azacytidine]
expression of DNMT1 [8]: decreased expression; also recorded: mediates a decrease in DNMT1 | effect on cell cycle progression and cell death (DAPI frequency plots, scatter) [1]: increased cell death; also recorded: inducing cell death
